Measured values: the supplement of paper PMC10307832

Assays:
Test in all cases: relative viability (nuclei count vs DMSO), 5 days (fraction); higher = more cells survive
[1] = compound: C=CCNC1=C2C[C@@H](C)C[C@H](OC)[C@H](O)[C@@H](C)/C=C(\C)[C@H](OC(N)=O)[C@@H](OC)/C=C\C=C(/C)C(=O)NC(=CC1=O)C2=O [17-AAG] + N=C(N)NC(=N)NCCc1ccccc1 [Phenformin] (partner 250 µM)
In short: (§1)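 Cells from lung cancer lines were seeded into 1536-well plates and, one day later, dosed by pin tool. Treatments were either a single drug or a fixed dose of an anchor drug with five library-drug doses (not always all listed) in √10 steps. After 5 days, nuclei were stained in a one-step fixation (final 0.05% Triton X-100, 1% formaldehyde, 1 ug/ml Hoechst) and counted on 4× images, and relative viability is the treated-to-vehicle nuclei ratio, as the median of duplicate plates.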

[2] = compound: C=CCNC1=C2C[C@@H](C)C[C@H](OC)[C@H](O)[C@@H](C)/C=C(\C)[C@H](OC(N)=O)[C@@H](OC)/C=C\C=C(/C)C(=O)NC(=CC1=O)C2=O [17-AAG] + COc1cccc2cc(-c3nc([C@H]4CC[C@H](C(=O)O)CC4)n4ncnc(N)c34)[nH]c12 [OSI-027] (partner 0.5 µM)
In short: as §1

[3] = compound: C=CCNC1=C2C[C@@H](C)C[C@H](OC)[C@H](O)[C@@H](C)/C=C(\C)[C@H](OC(N)=O)[C@@H](OC)/C=C\C=C(/C)C(=O)NC(=CC1=O)C2=O [17-AAG] + C[C@@H](Oc1cc(-c2cnn(C3CCNCC3)c2)cnc1N)c1c(Cl)ccc(F)c1Cl [Crizotinib] (partner 1 µM)
In short: as §1

[4] = compound: C=CCNC1=C2C[C@@H](C)C[C@H](OC)[C@H](O)[C@@H](C)/C=C(\C)[C@H](OC(N)=O)[C@@H](OC)/C=C\C=C(/C)C(=O)NC(=CC1=O)C2=O [17-AAG] + CC(=O)Nc1cccc(-n2c(=O)n(C3CC3)c(=O)c3c(Nc4ccc(I)cc4F)n(C)c(=O)c(C)c32)c1 [Trametinib] (partner 0.02 µM)
In short: as §1

Row | Cell Line | relative viability ([1]; first compound 0.00128 µM) | relative viability ([1]; first compound 0.004048 µM) | relative viability ([1]; first compound 0.0128 µM) | relative viability ([1]; first compound 0.04048 µM) | relative viability ([1]; first compound 0.128 µM) | relative viability ([2]; first compound 0.00128 µM) | relative viability ([2]; first compound 0.004048 µM) | relative viability ([2]; first compound 0.0128 µM) | relative viability ([2]; first compound 0.04048 µM) | relative viability ([2]; first compound 0.128 µM) | relative viability ([3]; first compound 0.00128 µM) | relative viability ([3]; first compound 0.004048 µM) | relative viability ([3]; first compound 0.0128 µM) | relative viability ([3]; first compound 0.04048 µM) | relative viability ([3]; first compound 0.128 µM) | relative viability ([4]; first compound 0.00128 µM) | relative viability ([4]; first compound 0.004048 µM) | relative viability ([4]; first compound 0.0128 µM) | relative viability ([4]; first compound 0.04048 µM) | relative viability ([4]; first compound 0.128 µM)
1 | LOU-NH91 | 0.592 | 0.513 | 0.383 | 0.376 | 0.307 | 0.666 | 0.618 | 0.443 | 0.359 | 0.316 | 0.666 | 0.624 | 0.516 | 0.365 | 0.353 | 0.795 | 0.747 | 0.584 | 0.434 | 0.387
2 | LU99A | 0.725 | 0.734 | 0.468 | 0.225 | 0.116 | 0.333 | 0.332 | 0.282 | 0.217 | 0.141 | 0.588 | 0.512 | 0.331 | 0.184 | 0.134 | 0.549 | 0.538 | 0.508 | 0.384 | 0.134
3 | NCI-H522 | 0.627 | 0.599 | 0.635 | 0.294 | 0.471 | 0.663 | 0.685 | 0.655 | 0.542 | 0.552 | – | – | – | – | – | 0.724 | 0.836 | 0.679 | 0.686 | 0.374
4 | NCI-H1395 | 0.449 | 0.425 | 0.4 | 0.358 | 0.324 | 0.634 | 0.619 | 0.467 | 0.377 | 0.277 | – | – | – | – | – | 1.09 | 0.984 | 0.807 | 0.448 | 0.368
5 | NCI-H1563 | 0.657 | 0.594 | 0.52 | 0.464 | 0.473 | 0.755 | 0.647 | 0.564 | 0.509 | 0.481 | 0.903 | 0.836 | 0.562 | 0.462 | 0.473 | – | – | – | – | –
6 | NCI-H1648 | – | – | – | – | – | 0.274 | – | 0.345 | 0.261 | 0.259 | – | – | – | – | – | – | 0.541 | 0.463 | 0.368 | 0.219
7 | NCI-H1703 | – | – | – | – | – | – | – | – | – | – | 0.611 | 0.634 | 0.129 | 0.151 | 0.119 | – | – | – | – | –
8 | NCI-H1793 | 0.349 | 0.391 | 0.229 | 0.146 | 0.0817 | 0.252 | 0.234 | 0.156 | 0.124 | 0.125 | – | – | – | – | – | 0.36 | 0.318 | 0.273 | 0.18 | 0.142
9 | NCI-H2342 | 0.562 | 0.792 | 0.554 | 0.398 | 0.379 | 0.552 | 0.716 | 0.584 | 0.504 | 0.425 | – | – | – | – | – | 0.8 | 0.799 | 0.79 | 0.631 | 0.7
10 | SW 900 | 0.577 | 0.37 | 0.13 | 0.0856 | 0.0981 | 0.476 | 0.487 | 0.134 | 0.0879 | 0.0977 | – | – | – | – | – | 0.587 | 0.513 | 0.208 | 0.128 | 0.153
